{"source": "patent US20080014153A1", "about": "“Topical Preparation For Application To The Skin Containing Natural Oil Of The Evening Primrose (Oenothera Biennis) (=Oleum Oenotherae) And Osmolytes Originating From Extremophilic Microorganisms” (priority 2004, published 2008)", "key": {"[1]": {"test_system": "very dry, irritated and problematic skin", "test": "Tending effect of care product on skin", "type": "in vivo", "details": "0.5% (wt. percent) ectoine in evening primrose oil containing product"}, "[2]": {"details": "0.1% (wt. percent) added to evening primrose oil preparation; room temperature, 25° C.; first occurrence of rancid smell", "description": "The stability of the preparation was assessed based on the first occurrence of a rancid smell of the evening primrose oil."}}}
{"molecule": "CC1=NCC[C@@H](C(=O)O)N1", "note": "[ectoine]", "values": [{"measurement": "tending effect compared with evening primrose oil containing tending product of identical composition", "setting": "[1]", "value": "noticeably better tending effect"}]}
{"molecule": "diglycerol phosphate", "values": [{"measurement": "improved evening primrose oil storage stability compared to a check preparation without diglycerol phosphates", "setting": "[2]", "value": "five"}]}
